PMC6530361, “Anti-tumor Efficacy Assessment of the Sigma Receptor Pan Modulator RC-106. A Promising Therapeutic Tool for Pancreatic Cancer” (Frontiers in Pharmacology, 2019)
Where two headings read alike, the source gives them in different places.

Experiments:
Type in all cases: cell-based
[1] = tested on: Panc-1, Capan-1, and Capan-2; assay: MTS assay, all cell lines tested; settings: 24, 48, and 72 h exposure
Procedure: (§1) Pancreatic adenocarcinoma Panc-1, Capan-1, and Capan-2, cell lines were purchased by the ATCC. All cell lines were grown in culture medium composed of DMEM/Ham’s F12 (1:1; Euroclone) supplemented with fetal calf serum (10%; Euroclone), glutamine (2 mM; Euroclone), and insulin (10 μg/mL; Sigma-Aldrich, St. Louis, MO, United States). All experiments were performed on cells in the exponential growth phase and checked periodically for mycoplasma contamination by MycoAlert^TM Mycoplasma Detection Kit (Lonza, Basel, Switzerland).
(§2) Cytotoxicity was assayed using CellTiter 96® AQueous One Solution Cell Proliferation Assay (Promega, Milan, Italy). Cells were seeded onto a 96-well plate at a density of 3 × 10^3 cells per well. Cell lines were exposed to increasing concentrations of the drug, ranging from 0.1 to 100 μM. The effect of the drug was evaluated after 24, 48, and 72 h of continued exposure. Two independent experiments were performed in octuplicate. The OD of treated and untreated cells was determined at a wavelength of 490 nm using a […].
(§3) Dose response curves were created by Excel software. IC50 values were determined graphically from the plot.

Panc-1 spheroids = assay: CellTiter-Glo 3D cell viability assay; settings: Homo sapiens, PANC-1, 48 h, 3D spheroids, diameter up to 600 μm, 12.5–50 μM
Procedure: Spheroids were obtained as previously described ([Zanoni et al., 2016]). Briefly, a rotatory cell culture system RCCS (Synthecon Inc., Houston, TX, United States) was used. The rotary systems were placed inside a humidified 37°C, 5% CO2 incubator and all procedures were performed in sterile conditions. Single cell suspensions of about 1 × 10^6 cells/ml of Panc-1 were placed in the 50 mL rotating chamber at an initial speed of 12 rpm. Speed was increased as cells formed aggregates to avoid sedimentation. The culture medium was changed every 4 days and tumor spheroids with an equivalent diameter ranging from about 500–1300 μm were obtained in around 15 days. After formation, spheroids were transferred into a 96-well low-attachment culture plates (Corning Inc., Corning, NY, United States; one spheroid/well), containing 100 μL of fresh culture medium per well.
Cell viability of Panc-1 spheroids was measured using a 3D cell viability assay (Promega, Milan, Italy). Briefly, homogeneous spheroids were removed from the 96-well low-attachment culture plate and placed separately in single wells of a 96-well opaque culture plate (BD Falcon). CellTiter-Glo® 3D reagent was added to each well and the luminescence signal was read after 30 min with the GloMax® bioluminescent reader (Promega).
The analysis of morphological parameters were performed as previously described ([Piccinini et al., 2017]). […]

Capan-1 = assay: MTS assay (cell viability, 2D); settings: Homo sapiens
Procedure: as §1, §2, §3

Panc-1 = assay: MTS assay (cell viability, 2D); settings: Homo sapiens
Procedure: as §1, §2, §3

Capan-2 = assay: MTS assay (cell viability, 2D); settings: Homo sapiens
Procedure: as §1, §2, §3

Work on `C/C(=C\CN1CCC(Cc2ccccc2)CC1)c1ccc2ccccc2c1` [RC-106, (E)-4-benzyl-1-(3-(naphthalen-2-yl)but-2-en-1-yl)piperidine] yielded an IC50 [1] of 33 to 57 µM, an IC50 (Panc-1 spheroids) of 39.6 µM and an IC50 (Capan-1; CAPAN-1, 24 h exposure, read-out: IC50 values 24h) of 56.8 ± 0.98 µM. For the same molecule, the IC50 (Capan-1; CAPAN-1, 48 h exposure, read-out: IC50 values 48h) was 50.3 ± 3.04 µM, the IC50 (Capan-1; CAPAN-1, 72 h exposure, read-out: IC50 values 72h) was 32.8 ± 3.43 µM and the IC50 (Panc-1; PANC-1, 24 h exposure, read-out: IC50 values 24h) was 55.3 ± 0.7 µM. For the same molecule, the IC50 (Panc-1; PANC-1, 48 h exposure, read-out: IC50 values 48h) was 51.7 ± 1.38 µM, the IC50 (Panc-1; PANC-1, 72 h exposure, read-out: IC50 values 72h) was 52.1 ± 0.47 µM and the IC50 (Capan-2; CAPAN-2, 24 h exposure, read-out: IC50 values 24h) was 52.6 ± 0.07 µM. It also gave an IC50 (Capan-2; CAPAN-2, 48 h exposure, read-out: IC50 values 48h) of 54.2 ± 2.18 µM and an IC50 (Capan-2; CAPAN-2, 72 h exposure, read-out: IC50 values 72h) of 53.3 ± 1.62 µM.
